Source: BindingDB's records for doi:10.1016/j.bmcl.2019.05.020 (Meiji Pharmaceutical University, 2019)

molecular target: Amyloid-beta precursor protein (Homo sapiens, UniProt P05067); test: Inhibition of human amyloid beta (1 to 40) assessed as reduction in aggregation measured after 24 hrs by ThT fluorescence assay
Sequence (P05067 whole entry): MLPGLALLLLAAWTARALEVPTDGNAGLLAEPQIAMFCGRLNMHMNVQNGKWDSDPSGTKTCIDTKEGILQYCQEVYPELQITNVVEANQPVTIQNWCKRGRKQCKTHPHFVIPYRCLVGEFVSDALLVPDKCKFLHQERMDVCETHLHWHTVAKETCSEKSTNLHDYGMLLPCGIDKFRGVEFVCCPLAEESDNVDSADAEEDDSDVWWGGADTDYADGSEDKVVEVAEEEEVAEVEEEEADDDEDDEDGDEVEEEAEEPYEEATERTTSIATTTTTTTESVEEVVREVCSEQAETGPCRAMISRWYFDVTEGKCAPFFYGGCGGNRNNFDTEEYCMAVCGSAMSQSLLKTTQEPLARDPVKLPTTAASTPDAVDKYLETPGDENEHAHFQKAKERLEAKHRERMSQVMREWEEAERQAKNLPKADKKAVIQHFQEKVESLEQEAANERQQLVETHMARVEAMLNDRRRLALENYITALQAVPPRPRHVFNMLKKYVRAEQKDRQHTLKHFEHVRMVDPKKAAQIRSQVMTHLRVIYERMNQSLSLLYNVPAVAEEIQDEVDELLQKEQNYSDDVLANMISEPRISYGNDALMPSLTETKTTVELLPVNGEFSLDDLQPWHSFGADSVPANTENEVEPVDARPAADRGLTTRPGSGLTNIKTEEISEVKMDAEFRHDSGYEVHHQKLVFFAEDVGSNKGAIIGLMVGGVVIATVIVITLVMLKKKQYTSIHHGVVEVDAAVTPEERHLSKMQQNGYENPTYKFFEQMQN

SMILES | IC50 [µM]
COc1ccc(-c2cc(=O)c3c(O)cc(OC)c(-c4cc(-c5cc(O)c6c(=O)cc(OC)cc-6o5)ccc4OC)c3o2)cc1 [7,4',7'',4'''-O-methyl-amentoflavone] | > 50
COc1ccc(-c2cc(=O)c3c(O)cc(OC)c(-c4cc(-c5cc(O)c6c(=O)cc(O)cc-6o5)ccc4OC)c3o2)cc1 [kayaflavone] | > 50
COc1ccc(-c2cc(=O)c3c(O)cc(O)c(-c4cc(-c5cc(O)c6c(=O)cc(OC)cc-6o5)ccc4OC)c3o2)cc1 [sciadopitisin] | > 50
COc1cc2oc(-c3ccc(O)c(-c4c(O)cc(O)c5c(=O)cc(-c6ccc(O)cc6)oc45)c3)cc(O)c-2c(=O)c1 [sequoiaflavone] | 4.9

Second part, the compound after the results:

IC50 [µM] | SMILES
4.9 | COc1ccc(-c2cc(=O)c3c(O)cc(O)c(-c4cc(-c5cc(O)c6c(=O)cc(O)cc-6o5)ccc4O)c3o2)cc1 [4'''-methylamentoflavone]
> 50 | COc1ccc(-c2cc(O)c3c(=O)cc(O)cc-3o2)cc1-c1c(OC)cc(O)c2c(=O)cc(-c3ccc(O)cc3)oc12 [4',7''-di-O-methyl-amentoflavone]
> 50 | COc1cc2oc(-c3ccc(OC)c(-c4c(OC)cc(O)c5c(=O)cc(-c6ccc(O)cc6)oc45)c3)cc(O)c-2c(=O)c1 [7-O-methyl-isoginkgetin]
> 50 | COc1ccc(-c2cc(=O)c3c(O)cc(OC)c(-c4cc(-c5cc(O)c6c(=O)cc(OC)cc-6o5)ccc4O)c3o2)cc1 [heveaflavone]
> 50 | COc1cc(O)c2c(=O)cc(-c3ccc(O)cc3)oc2c1-c1cc(-c2cc(O)c3c(=O)cc(O)cc-3o2)ccc1O [sotetsuflavone]
